Assay results as given in patent US7341717B2, “Therapeutic targets for treatment of HCV infections, methods of treating HCV infections and compounds useful therefor” (priority 2001, dated 2008).

How the values were obtained:
[1] = test system: HCV replicon (subgenomic HCV RNA, NS5a); assay: HCV replicon RNA (Northern blot) and NS5a protein (Western blot) levels in HuH7 replicon cell lines; type: cell-based, Hepatitis C virus; conditions: for effect like all-trans-retinoic acid (GI-GPx upregulation, reduction of HCV RNA and NS5a): alone or in combination with each other or with selenium or a selenium salt; for reduction of HCV load: replicon cells
Method: The HuH7 pcDNA3 control cells and the replicon cell lines 5-15, 11-7 and 9-13 were plated as described in legend to FIG. 1 and after three days (Day 0) treated for two (Day 2) and four days (Day 4) with 1000U/ml interferon α (IFN-α). Then, cultures were harvested and RNA was prepared. 10 μg of total RNA were used for Northern blot analysis. For detection of GI-GPx (A) Probe 1 was used (see FIG. 1). The membranes were stripped and successively hybridized with probes for PKR (B) and neomycin phosphotransferase (Neo)(C). […]
(§1) Western blot analysis was performed using an NS5a antibody (FIG. 5). Expression of the transduced GI-GPx cDNA was monitored with a GI-GPx-specific antiserum (FIG. 6).
(§2) Replicon cells were incubated with alpha interferon (IFN-α) for two and four days. Northern blot analyses were performed with 10 μg total RNA. […] Interferon had no effect on the expression of GI-GPx in mock transfected HuH7 cells (cf FIG. 4).
(§3) As a model system for HCV replication there were utilized three replicon cell lines provided by Prof. R. Bartenschlager (University of Heidelberg, Germany). Cultures were treated for various periods of time with all trans-retinoic acid (RA) for comparative purposes and the other agents selenium, selenium salts, Vitamin D3 and retinoids, like 9-cis-retinoic acid, C1-C10 alkyl esters of 9-cis-retinoic acid, C1-C10 alkyl amides of 9-cis-retinoic acid, N-(4-hydroxyphenyl) retinamide (4-HPR), 6-[3-(1-adamantyl)-4-hydroxyphenyl]-2-naphthalene carboxylic acid (CD437; AHPN) (obtained from Sigma), paraquat, 4-[E-2-(5,6,7,8-tetrahydro-5,5,8,8-tetramethyl-2-naphthalenyl)-1-propenyl]benzoic acid, 4-hydroxyphenylretinamide, and 4-[(5,6,7,8-tetrahydro-5,5,8,8-tetramethyl-2-naphtalenyl)carboxamido]benzoic acid.
(§4) Levels of GI-GPx protein expression were measured by Western Blotting using antibodies provided by Prof. Brigelius-Flohe (University of Potsdam, Germany), and RNA levels were measured by Northern blotting using GI-GPx-specific oligonucleotides as probes. Levels of HCV RNA were investigated by Northern Blotting using a DNA oligonucleotide complementary to the neomycin phosphotransferase gene as probe. Concentration of the viral protein NS5a was determined by Western Blotting with an NS5a-specific antibody (Biogenesis, UK).

replicon cells = assay: Cytotoxic effects in replicon cells; type: cell-based, human
From the text: As a model system for HCV replication there were utilized three replicon cell lines provided by Prof. R. Bartenschlager (University of Heidelberg, Germany).

[2] = test system: PKR (double strand RNA-dependent protein kinase); assay: Transcription of PKR in replicon cells; type: cell-based, human
Method: (§5) The HuH7 pcDNA3 control cells and the replicon cell lines 5-15, 11-7 and 9-13 were plated as described in legend to FIG. 1 and after three days (Day 0) treated for two (Day 2) and four days (Day 4) with 1000U/ml interferon α (IFN-α). Then, cultures were harvested and RNA was prepared. 10 μg of total RNA were used for Northern blot analysis. For detection of GI-GPx (A) Probe 1 was used (see FIG. 1). The membranes were stripped and successively hybridized with probes for PKR (B) and neomycin phosphotransferase (Neo)(C).
This fact implies that downregulation of HCV was promoted firstly by activation of the GI-GPx gene on transcriptional level by retinoic acid and secondly by the synthesis of selenoprotein(s) for which sodium selenite was needed. Indeed it could be shown that all-trans-retinoic acid-induced downregulation of HCV is independent of the innate immune response induced by interferon.

GI-GPx [3] = assay: GI-GPx RNA and protein expression in HuH7 replicon cell lines; type: cell-based, human
Method: as §5, §1
The x-ray films were densitometrically scanned and the NS5a values compared with untransfected control cells (set as 100%) (FIG. 5) and the GI-GPx values compared with the maximum expression of the transduced GI-GPx cDNA obtained seven days post infection (set as 100%) (FIG. 6).
as §2, §3, §4

HuH pcDNA3 control cells = assay: Paraquat sensitivity, Alamar Blue viability assay; type: cell-based, human; conditions: 24 hours, three independent experiments
Method: (§6) Cells were plated in 96-well microtiter plates (5×10^3 cells/0.35 cm^2) and after three days treated for 24 hours with the concentration of paraquat depicted. Cell viability was measured utilizing an Alamar-Blue assay and is reflected by relative fluorescence units (RFU) at 405 nm.
(§7) Replicon cell lines and control cells were incubated for 24 hours with various concentrations of paraquat (methylviologen), and viability of the cultures was measured using the Alamar Blue assay.
(§8) For quantification of the degree of cell death in cell culture we employed the viability assay based on the reduction of tetrazolium salt to formazan by mitochondrial dehydrogenase activity. The assay was performed in 96-well microtiter plates (Greiner, Frickenhausen, Germany) as described previously (T. Herget et al., 1998, J. Neurochem., 70: 47-58) but Alamar Blue (Roche Molecular Biochemicals, Germany) was used instead of MTT. The light absorbance at 405 nm of the medium including all factors but without cells was determined and subtracted from the absorption readings with cells. Eight wells per sample point were analyzed and each experiment was repeated independently at least three times.

HuH 9-13 replicon cells = assay: Paraquat sensitivity, Alamar Blue viability assay; type: cell-based, human; conditions: HuH 9-13, 24 hours, three independent experiments
Method: as §6, §7, §8

HuH 5-15 replicon cells = assay: Paraquat sensitivity, Alamar Blue viability assay; type: cell-based, human; conditions: HuH 5-15, 24 hours, three independent experiments
Method: as §6, §7, §8

HuH 11-7 replicon cells = assay: Paraquat sensitivity, Alamar Blue viability assay; type: cell-based, human; conditions: HuH 11-7, 24 hours, three independent experiments
Method: as §6, §7, §8

GI-GPx [4] = assay: GI-GPx expression in mock transfected HuH7 cells; type: cell-based, human
Method: as §5, §2

| Compound | effect like all-trans-retinoic acid (GI-GPx upregulation, reduction of HCV RNA and NS5a) [1] | reduction of HCV load [1] | other results |
| --- | --- | --- | --- |
| CC1=C(/C=C/C(C)=C/C=C/C(C)=C/C(=O)Nc2ccc(O)cc2)C(C)(C)CCC1 [4-HPR, N-(4-hydroxyphenyl) retinamide] | showed a similar effect | capable of reducing HCV load |  |
| CC1(C)CCC(C)(C)c2cc(C(=O)Nc3ccc(C(=O)O)cc3)ccc21 [4-[(5,6,7,8-tetrahydro-5,5,8,8-tetramethyl-2-naphthalenyl)carboxamido]benzoic acid] | showed a similar effect | capable of reducing HCV load |  |
| C/C(=C\c1ccc(C(=O)O)cc1)c1ccc2c(c1)C(C)(C)CCC2(C)C [4-[E-2-(5,6,7,8-tetrahydro-5,5,8,8-tetramethyl-2-naphthalenyl)-1-propenyl]benzoic acid] | showed a similar effect | capable of reducing HCV load |  |
| CC1=C(/C=C/C(C)=C\C=C\C(C)=C\C(=O)O)C(C)(C)CCC1 [9-cis retinoic acid] | showed a similar effect | capable of reducing HCV load |  |
| CC1=C(/C=C/C(C)=C/C=C/C(C)=C\C(=O)O)C(C)(C)CCC1 [13-cis retinoic acid] | showed a similar effect | capable of reducing HCV load |  |
| O=C(O)c1ccc2cc(-c3ccc(O)c(C45CC6CC(CC(C6)C4)C5)c3)ccc2c1 [CD437, 6-[3-(1-adamantyl)-4-hydroxyphenyl]-2-naphthalene carboxylic acid] | showed a similar effect | capable of reducing HCV load |  |
| CC1=C(/C=C/C(C)=C/C=C/C(C)=C/C(=O)O)C(C)(C)CCC1 [all-trans-retinoic acid] |  |  | downregulation of subgenomic HCV RNA and viral protein NS5a ([1]; 1 μM, seven days, depending on the cell line): two- to five-fold; effect on HCV expression ([1]; 1 μM, three days): hardly any effect; reduction of HCV RNA and HCV NS5a protein ([1]; six days, in the presence of selenium or a selenium salt like sodium selenite): two-to five-fold; toxic effects (replicon cells; six days, in the presence of selenium or a selenium salt): absence of toxic effects; induction of transcription of PKR [2]: did not induce; up-regulation of GI-GPx, RNA and protein level (GI-GPx [3]; 1 μM, seven days of incubation): three- to ten-fold; effect on GI-GPx expression (GI-GPx [3]; 1 μM, three days): hardly any effect; GI-GPx RNA and protein (GI-GPx [3]; six days): upregulation |
| CCOC(=O)/C=C(C)/C=C/C=C(C)/C=C/c1c(C)cc(OC)c(C)c1C [etretinate] | showed a similar effect | capable of reducing HCV load |  |
| C[n+]1ccc(-c2cc[n+](C)cc2)cc1 [paraquat] | showed a similar effect | capable of reducing HCV load | LD50 for paraquat (HuH pcDNA3 control cells): 1250 ± 120 µM; LD50 for paraquat (HuH 9-13 replicon cells): 260 ± 50 µM; LD50 for paraquat (HuH 5-15 replicon cells): 270 ± 75 µM; LD50 for paraquat (HuH 11-7 replicon cells): 310 ± 65 µM |
| CC1=C(/C=C/C(C)=C/C=C/C(C)=C/C=O)C(C)(C)CCC1 [retinoic acid adlehyde] | showed a similar effect | capable of reducing HCV load |  |
| CC1=C(/C=C/C(C)=C/C=C/C(C)=C/CO)C(C)(C)CCC1 [retinol] | showed a similar effect | capable of reducing HCV load |  |
| O=[Se](O)O [sodium selenite] |  |  | severe cytotoxic effects (replicon cells; alone or both in combination): neither observed |
| IFN-α |  |  | GI-GPx expression (GI-GPx [4]): no effect; HCV-replicon RNA and HCV protein NS5a level ([1]; 1000 U/ml, two and four days): time- and dose-dependent down-regulation; GI-GPx expression (GI-GPx [3]; replicon cells, within four days of interferon treatment, 1000 U/ml): up-regulated |
